Assay results reported in BigSolDB 2.1.

CC(=O)C1=CC[C@H]2[C@@H]3CCC4=CC(=O)C=C[C@]4(C)[C@H]3[C@@H](O)C[C@]12C
solubility (mole fraction)
Conditions | in acetone | in ethanol
298.15 K | 0.00192 | 0.00213
303.15 K | 0.00215 | 0.00252
308.15 K | 0.00243 | 0.00291
313.15 K | 0.00275 | 0.00335
318.15 K | 0.00303 | 0.00395
323.15 K | 0.00351 | 0.00461
328.15 K | 0.0038 | 0.00541
333.15 K | – | 0.00625
338.15 K | – | 0.00722
343.15 K | – | 0.00844
348.15 K | – | 0.0097
